In US8377918B2 (ACC Therapeutics Inc, priority 2005, dated 2013):

What was measured:
A549 cells = test: MTT cell proliferation assay, A549 lung cancer cells; assay type: cell-based, human; settings: A549, apigenin alone, 24 h
Description: (§1) FIG. 17. […] A, the prostate cancer cells PC-3 and DU145; B, colon cancer cells Colo-205 and HCT-116; C, lung cancer cells A549 and H460 cells were plated at 1×10^4 cells per well in a 96 well plate in 100 μl of media.

DU145 cells = test: MTT cell proliferation assay, DU145 prostate cancer cells; assay type: cell-based, human; settings: 24 h
Description: FIG. 8. […] Prostate cancer cells PC-3 and DU145 were seeded in 96-well plates at 1×10^4 cells/well. […] The cell proliferation was assayed by culturing the cells for 24 h, then adding 10 μl of MTT reagent with incubation for 2 h. The reaction was stopped by adding 100 μl of solubilization solution. The relative cell proliferation was obtained by the reading at 590 nm which was recorded in a spectrophotometer, and normalized to the value of control.
as §1
FIG. 19. […] A, prostate cancer cells PC-3; and B, DU145 cells were plated at 1×10^4 cells per well in a 96 well plate in 100 μl of media. […] Cell proliferation was examined by MTT assay.
FIG. 21. […] A, the prostate cancer cells PC-3 and DU145; B and C, colon cancer cells Colo-205 and HCT-116 were plated at 1×10^4 cells per well in a 96 well plate in 100 μl of media a day before the treatment.
FIG. 23. […] Cell proliferation was examined by MTT assay.

endothelial cells = test: Tube formation in vitro; assay type: cell-based

**Q.** With `O=c1cc(-c2ccc(O)cc2)oc2cc(O)cc(O)c12` [apigenin, 4′,5,7,-trihydroxyflavone] as the compound, how does the “effect on cell proliferation” value (A549 cells) read?
**A.** inhibited the proliferation

**Q.** And the “effect on sensitivity to etoposide treatment” value (DU145 cells; DU145, 15 μM apigenin)?
**A.** increased the sensitivity

**Q.** And the “effect on cell proliferation” value (DU145 cells; DU145, apigenin alone)?
**A.** inhibited

**Q.** And the “effect on tube formation” value (endothelial cells)?
**A.** inhibited tube formation
